Laboratory results from ChEMBL document CHEMBL1147020, “Low molecular weight indole fragments as IMPDH inhibitors” (Bioorg Med Chem Lett, 2006).
Calls of active or inactive are those of the source. The calls are words filed in the database; no cut-off is given here.

Target: T1, Inosine-5'-monophosphate dehydrogenase 2 (Homo sapiens, UniProt P12268)
Test: Inhibition of IMPDH2

Question: How did the IC50 turn out when `Cn1cc(-c2ccoc2)c2ccccc21` was run?
Answer: 6.21 µM

Question: How did the IC50 turn out when `Nc1ccc2c(-c3cncs3)c[nH]c2c1` was run?
Answer: 27.9 µM

Question: With `Brc1ccc2c(-c3ccncc3)c[nH]c2c1` as the compound, how does the IC50 read?
Answer: 0.408 µM

Question: For `Nc1cccc2c(-c3ccncc3)c[nH]c12`, which IC50 is on record?
Answer: 0.524 µM

Question: Which IC50 does the source give for `c1ccc2c(-c3ccncc3)c[nH]c2c1` here?
Answer: 1.15 µM

Question: How did the IC50 turn out when `c1ccc2c(-c3ccoc3)c[nH]c2c1` was run?
Answer: 5.84 µM

Question: `COc1cc(N)ccc1-c1cnco1` was tested. Which IC50 did it give?
Answer: 8.2 µM

Question: For `Cc1[nH]c2ccccc2c1-c1ccncc1`, which IC50 is on record?
Answer: 0.343 µM

Question: `Cc1[nH]c2cc(N)ccc2c1-c1ccncc1` was tested. Which IC50 did it give?
Answer: 0.419 µM

Question: Which IC50 does the source give for `Nc1ccc2c(-c3ccncc3)c[nH]c2c1` here?
Answer: 0.637 µM

Question: How did the IC50 turn out when `N#Cc1c[nH]c2ccccc12` was run?
Answer: 20.9 µM

Question: For `Cn1cc(C#N)c2ccccc21`, which IC50 is on record?
Answer: 7.66 µM

Question: With `O=Cc1c[nH]c2ccccc12` [3-FORMYLINDOLE] as the compound, how does the IC50 read?
Answer: 22.7 µM

Question: With `Cn1cc(C=O)c2ccccc21` as the compound, how does the IC50 read?
Answer: 6.84 µM

Question: For `Nc1ccc2c(-c3ccsc3)c[nH]c2c1`, which IC50 is on record?
Answer: 2.32 µM

Target: T1, Inosine-5'-monophosphate dehydrogenase 2
Test: Inhibition of IMPDH2 at 50 uM

Question: Which inhibition does the source give for `Cc1cc(-c2c[nH]c3cc(N)ccc23)ccn1` here?
Answer: inactive

Question: How did the inhibition turn out when `Cn1cc(-c2ccncc2)c2ccc(Br)cc21` was run?
Answer: 62%

Question: Which inhibition does the source give for `c1cncc(-c2c[nH]c3ccccc23)c1` here?
Answer: inactive

Question: `NC(=O)c1c[nH]c2ccccc12` was tested. Which inhibition did it give?
Answer: inactive

Question: Which inhibition does the source give for `Cn1cc(C(N)=O)c2ccccc21` here?
Answer: 50%
